The results in this text go back to patent publication US8778923B2, “GLP-1 receptor modulators” (Receptos, Inc., priority 2011, dated 2014).

Some results are limits rather than exact numbers.

The target of the test is T1, GLP-1R (Homo sapiens, UniProt P43220).
T1 construct: host or cells: CRE-bla CHO-K1
T1 sequence (P43220 24-463): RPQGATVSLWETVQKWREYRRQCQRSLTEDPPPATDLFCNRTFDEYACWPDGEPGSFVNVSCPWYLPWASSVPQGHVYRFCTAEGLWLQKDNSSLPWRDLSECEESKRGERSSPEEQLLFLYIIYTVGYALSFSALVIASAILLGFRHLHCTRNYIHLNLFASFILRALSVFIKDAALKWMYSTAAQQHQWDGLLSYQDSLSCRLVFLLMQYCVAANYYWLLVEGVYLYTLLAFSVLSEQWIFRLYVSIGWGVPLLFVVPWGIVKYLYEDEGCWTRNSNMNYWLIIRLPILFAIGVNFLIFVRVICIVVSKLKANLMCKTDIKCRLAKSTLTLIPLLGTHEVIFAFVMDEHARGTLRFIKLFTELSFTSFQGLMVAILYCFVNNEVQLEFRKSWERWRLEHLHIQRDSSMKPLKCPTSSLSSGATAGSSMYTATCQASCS
T1 sequence (P01275 100-127 partner limits assumed): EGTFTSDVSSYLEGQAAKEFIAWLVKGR
Briefly: EC20 GLP-1(9-36) PAM cAMP assay: dose response of compound in the presence of fixed concentration of GLP-1(9-36). The class given is cell-based. The conditions noted are these: GLP-1R CRE-bla CHO-K1 cells, compound dose response in presence of fixed concentration of GLP-1(9-36). The procedure, abridged:
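GLP-1R CRE-bla CHO-K1 cells in HBSS/10 mM Hepes/0.1% BSA pH 7.4 with IBMX got a 12-point compound dose response plus fixed EC20 GLP-1(9-36), 30 min at 37 °C. cAMP measured by HitHunter luminescence against a standard curve; EC50 and Emax by non-linear regression.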
Background: cAMP levels reflect the balance of adenylyl cyclase and phosphodiesterase activity.
A word on the EC50: it is the concentration that produces a half-maximal response. As for `CCCCCCCOc1ccc(-c2cnc(-c3ccc(C[C@H](NC(=O)c4ccc(C(C)C)cc4)C(=O)N[C@@H](CC(=O)O)C(=O)O)cc3)nc2)cc1` [Compound 307], the EC50 lay in the range of 800 to 2500 nM. With `CCCCCCCOc1ccc(-c2cnc(-c3ccc(C[C@H](NC(=O)c4ccc(C(C)C)cc4)C(=O)N[C@@H](CC(C)C)C(=O)O)cc3)nc2)cc1` [Compound 308], the concentration for a half-maximal effect (EC50) is 800 to 2500 nM. The value for `CCCCCCCOc1ccc(-c2cnc(-c3ccc(C[C@H](NC(=O)c4ccc(C(C)C)cc4)C(=O)N[C@@H](CO)C(=O)O)cc3)nc2)cc1` [Compound 309] was below 800 nM; that for `CCCCCCCOc1ccc(-c2cnc(-c3ccc(C[C@H](NC(=O)c4ccc(C(C)C)cc4)C(=O)N[C@@H](CCCCN)C(=O)O)cc3)nc2)cc1` [Compound 310] was below 800 nM. Take `CCCCCCCOc1ccc(-c2cnc(-c3ccc(C[C@H](NC(=O)c4ccc(C(C)C)cc4)C(=O)N[C@@H](Cc4cnc[nH]4)C(=O)O)cc3)nc2)cc1` [Compound 311]: the 50% effective concentration (EC50) lay within 800 to 2500 nM.

Regarding `CCCCCCCOc1ccc(-c2cnc(-c3ccc(C[C@H](NC(=O)c4ccc(C(C)C)cc4)C(=O)N[C@H](C)C(=O)O)cc3)nc2)cc1` [Compound 312], the half-maximal effective concentration (EC50) lay within 800 to 2500 nM. Under `CCCCCCCOc1ccc(-c2cnc(-c3ccc(C[C@H](NC(=O)c4ccc(C(C)C)cc4)C(=O)N[C@H](CC(C)C)C(=O)O)cc3)nc2)cc1` [Compound 313] stands 800 to 2500 nM; under `CCCCCCCOc1ccc(-c2cnc(-c3ccc(C[C@H](NC(=O)c4ccc(C(C)C)cc4)C(=O)N[C@H](CCCCN)C(=O)O)cc3)nc2)cc1` [Compound 314], 800 to 2500 nM; under `CCCCCCCOc1ccc(-c2cnc(-c3ccc(C[C@H](NC(=O)c4ccc(C(C)C)cc4)C(=O)N[C@H](CO)C(=O)O)cc3)nc2)cc1` [Compound 315], 800 to 2500 nM. Under `CCCCCCCOc1ccc(-c2cnc(-c3ccc(C[C@H](NC(=O)c4ccc(C(C)C)cc4)C(=O)N[C@H](Cc4cnc[nH]4)C(=O)O)cc3)nc2)cc1` [Compound 316] stands below 800 nM; under `CCCCCCCOc1ccc(-c2cnc(-c3ccc(C[C@H](NC(=O)c4ccc(C(C)C)cc4)C(=O)NCC(=O)O)cc3)nc2)cc1` [Compound 317], below 800 nM; under `CCCCCCOc1ccc(-c2cnc(-c3ccc(C[C@H](NC(=O)c4ccc(C(C)(C)C)cc4)C(=O)NCC(=O)O)cc3)nc2)cc1` [Compound 318], below 800 nM. As for `CCCCCCCOc1ccc(-c2cnc(-c3ccc(C[C@H](NC(=O)c4ccc(C(C)(C)C)s4)C(=O)NCC(=O)O)cc3)nc2)cc1` [Compound 319, (S)-(2-(5-(tert-butyl)thiophene-2-carboxamido)-3-(4-(5-(4-(heptyloxy)phenyl)pyrimidin-2-yl)phenyl)propanoyl)glycine], the EC50 was below 800 nM. The value for `CCCCCCCOc1ccc(-c2cnc(-c3ccc(C[C@H](NC(=O)c4ccc(C(C)(C)C)s4)C(=O)N[C@@H](CCC(N)=O)C(=O)O)cc3)nc2)cc1` [Compound 320, ((S)-2-(5-(tert-butyl)thiophene-2-carboxamido)-3-(4-(5-(4-(heptyloxy)phenyl)pyrimidin-2-yl)phenyl)propanoyl)-L-glutamine] was below 800 nM. As for `CCCCCCCOc1ccc(-c2cnc(-c3ccc(C[C@H](NC(=O)c4ccc(C(C)(C)C)s4)C(=O)N[C@@H](CC(N)=O)C(=O)O)cc3)nc2)cc1` [Compound 321], the half-maximal effective concentration (EC50) was below 800 nM.

Regarding `CCCCCCCOc1ccc(-c2cnc(-c3ccc(C[C@H](NC(=O)c4ccc(C(C)(C)C)s4)C(=O)N[C@@H](CC(=O)O)C(=O)O)cc3)nc2)cc1` [Compound 322], the EC50 lay within 800 to 2500 nM. The value for `CCCCCCCOc1ccc(-c2cnc(-c3ccc(C[C@H](NC(=O)c4ccc(C(C)(C)C)s4)C(=O)N[C@H](CO)C(=O)O)cc3)nc2)cc1` [Compound 323] was below 800 nM; that for `CCCCCCCOc1ccc(-c2cnc(-c3ccc(C[C@H](NC(=O)c4ccc(C(C)(C)C)s4)C(=O)N[C@H](CC(=O)O)C(=O)O)cc3)nc2)cc1` [Compound 324] was 800 to 2500 nM.
